Eight molecules from US20110212181A1, “COMPOSITIONS AND METHODS FOR TREATING CHRONIC RESPIRATORY INFLAMMATION” (The University of Hong Kong, priority 2010, published 2011) can be followed below.

The target in test [1] is T1, NE (Homo sapiens, UniProt P08246).
T1 sequence (P08246 30-267): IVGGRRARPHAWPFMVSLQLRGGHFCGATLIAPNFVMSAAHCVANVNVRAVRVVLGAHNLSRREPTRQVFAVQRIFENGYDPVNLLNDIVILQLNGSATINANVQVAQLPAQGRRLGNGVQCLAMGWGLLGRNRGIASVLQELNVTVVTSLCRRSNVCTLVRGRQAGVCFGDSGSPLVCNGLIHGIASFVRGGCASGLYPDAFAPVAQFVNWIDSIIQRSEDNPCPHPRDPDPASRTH
As to the kind of experiment: Surface plasmon resonance competition assay, NE binding to HS-SA sensor chip. Particulars: for competitive effectiveness (inhibition of NE binding to immobilized HS): NE at 1,000 nM, competing glycosaminoglycans at 1,000 ng/ml; for competition for NE binding to immobilized HS (in words): solution-surface competition, SPR. As to the method:
(§1) Interactions of HS and NE were analyzed with a BIAcore 2,000 optical biosensor (BIAcore, Uppsala, Sweden). HS chains recovered from rhSyn-1 after LiOH treatment were biotinylated at the reducing ends (68 nmol biotin/mg HS, as determined by Quant*Tag Biotin kit; Vector Laboratories, Peterborough, UK). By a 2-minute injection of biotinylated HS, […] in 10 mM Hepes (pH 7.4), 0.15 M NaCl, and 0.005% P20 surfactant (HBS-P; BIAcore), at a flow rate of […] onto the streptavidin (SA) sensor chip (BIAcore), increase in 250 resonance units indicated successful immobilization of HS onto the sensor chip. Increasing concentrations of NE in HBS-P buffer were perfused (at […] for 2 min) in turn over the HS-SA sensor chip, each followed by perfusion of buffer to facilitate dissociation. Responses were monitored at 25° C. The sensor chip was regenerated with perfusion of 2 M NaCl/HBS-P. Resonance data obtained from sensorgrams were evaluated with BIAevaluation 3.0 software (BIAcore) to yield rate constants for association (ka), dissociation (kd) and the equilibrium dissociation constant (Kd). For competition assays, NE (2,000 nM) premixed at 1:1 (vol/vol) with defined concentrations (250-2,000 ng/ml) of the competing glycosaminglycan-chondroitin 4-sulfate (C4S), heparin, and chemically modified heparins (N-desulfated re-N-acetylated, completely desulfated re-N-acetylated, or 2-O and 6-O desulfated and N-sulfated; Seikagaku) in HBS-P buffer for 30 minutes at 4° C. was injected onto the HS-SA sensor chip at […]. Dissociation and regeneration procedures were as described above. […] All experiments were preformed in duplicate. Resonance data obtained from sensorgrams were plotted as percent inhibition relative to that obtained without competing glycosaminoglycan. The concentration of competing glycosaminoglycan that interfered with NE binding to the HS-SA sensor by 50% was determined using the statistical program, PRISM (GraphPad, Inc., San Diego, Calif.).
(SPR reads the build-up and loss of mass on a sensor chip optically.)

The target in test [2] is T2, rhSyn-1 (Homo sapiens, UniProt P18827).
T2 construct: made in house
T2 sequence (P18827 23-310): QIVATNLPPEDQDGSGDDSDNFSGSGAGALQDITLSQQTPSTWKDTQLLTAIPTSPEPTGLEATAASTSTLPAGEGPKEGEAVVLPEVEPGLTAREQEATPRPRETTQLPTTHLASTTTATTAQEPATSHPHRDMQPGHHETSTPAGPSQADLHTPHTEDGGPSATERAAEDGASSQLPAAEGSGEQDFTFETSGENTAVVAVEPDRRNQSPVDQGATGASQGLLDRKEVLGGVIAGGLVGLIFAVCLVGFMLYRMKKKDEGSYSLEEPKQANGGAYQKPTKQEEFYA
As to the kind of experiment: Western ligand blot of rhSyn-1. The format is binding. Here is the method:
Sputum sol was treated (30 min, 24° C.) with the mucolytic reducing agent, DTT (5 mM; Sigma) to deactivate NE, dialyzed against PBS (16 h, 4° C.) to remove DTT, and then incubated (16 h, 37° C.) with HS^ase I and II (0.01 unit each; Seikagaku, Tokyo, Japan) or chondroitinase ABC (0.01 unit; Seikagaku). Control treatments were performed in the relevant incubation buffer (product sheet; Seikagaku), but without the indicated enzymes. The digestion products were subjected to Western blot and Western ligand blot analyses. Recombinant Syn-1 was similarly treated, deglycanated, and analyzed, but without prior treatment with DTT.
Sputum sol samples were treated with DTT, as described above, and then subjected to SDS-PAGE in a 10% gel under nonreducing conditions. The gel electrophoretogram was electroblotted onto polyvinylidene fluoride membrane and nonspecific binding was blocked with 5% nonfat dry milk (1 h, 24° C.) before the blot was probed for the epitope of interest. […] Secondary antibodies were conjugated with horseradish peroxidase. The membranes were washed with PBS-Tween® 20 between incubations. Visualization was enhanced with an enhanced chemiluminescence kit (Amersham Biosciences, Piscataway, N.J.). […]

The target of test [3] is T1, NE. As to the kind of experiment: Surface plasmon resonance analysis of NE-HS binding. Here is the method: as §1
The target of test [4] is T1, NE. Nature of the test: Inhibition of NE activity in the presence of rhSyn-1 or sputum sol. Particulars: incubations with rhSyn-1 and with sputum samples, with and without prior HS^ase I and II treatment. The format is biochemical.
Experimental: Unopposed NE activity in sputum sol was assessed for equivalent molar concentration by active-site titration. The NE activity of sputum sol was estimated using MeO-Suc-Ala-Ala-Pro-Val-p-nitroanilide as substrate at 2 mM in 0.2 M Tris-HCl, 0.5 M NaCl (pH 8.0); the hydrolytic release of p-nitroaniline was followed at 410 nm, 37° C. (molar extinction coefficient at 410 nm=8,800). An equivalent activity of purified human NE (Sigma, St. Louis, Mo.) was titrated with increasing concentrations of the irreversible inhibitor, MeO-Suc-Ala-Ala-Pro-Val-CMK (Calbiochem, La Jolla, Calif.), and the residual activities were measured.
The inhibitor effects were compared with those of parallel procedure performed on DTT-pretreated sputum sol samples of the 12 patient recruits.
The mark [5] stands for this setting: NE over immobilized HS, 1:1 Langmuir model.

The term Kd denotes the concentration at which binding is half-saturated.

Consider “N-desulfated and re-N-acetylated heparin”, for which the “competitive effectiveness (inhibition of NE binding to immobilized HS)” value in test [1] was “approximately 75%”.

On to heparin, for which, in test [1], the “competitive effectiveness (inhibition of NE binding to immobilized HS)” value is 95% and the “competition for NE binding to immobilized HS (in words)” value (“competition for NE binding” below) is “Effective competition”.

For alpha-1-antitrypsin [α1-AT], in test [2], the “binding to glycanated rhSyn-1” value is “not”. Besides, in test [2] (after heparitinase and chondroitinase treatments), the “binding to deglycanated rhSyn-1 core protein” value was “binding”.

With chondroitin 4-sulfate [C4S], the results for the “competition for NE binding” value in test [1] and in test [1] (listed as CS) were “failed to outcompete” and “not”, respectively.

Consider “Completely desulfated and re-N-acetylated heparin”, for which the “competition for NE binding” value in test [1] is given as “failed to outcompete”.

Consider heparan sulfate [HS], for which, in test [3] (NE (50-1,500 nM) perfused over immobilized HS from rhSyn-1, 1:1 Langmuir model, 25° C., read-out: equilibrium dissociation constant (Kd)), the Kd is 14.2 nM. For the same molecule, in test [3] (setting [5]), the “ka, rate constant for association” value was 3.31 ± 0.14 × 10^4 M^−1s^−1 and the “kd, rate constant for dissociation” value is on record as 4.69 ± 0.21 × 10^−4 s^−1.

For the molecule “2-0 and 6-0 desulfated and N-sulfated heparin”, the “competitive effectiveness (inhibition of NE binding to immobilized HS)” value in test [1] was “approximately 60%”.

B1: eglin C (peptide, UniProt P01051 1-70, looked up)
Eglin C: TEFGSELKSFPEVVGKTVDQAREYFTLHYPQYDVYFLPEGSPVTLDLRYNRVRVFYNPGTNVVNHVPHVG
As for B1, the “inhibition of NE activity (in words)” value in test [4] was “complete inhibition”.
